Several values for one entry are separate records, joined by “and”; a condition that tells them apart may be missing. Equal values may be shown once.
Legend:
[1] = system: high fat diet-induced diabetic model (male C57BL/6 mice); test: Oral glucose tolerance test in high fat diet-induced diabetic model; assay type: in vivo; settings: OGTT after 1 wk
Procedure: The Aframomum melegueta-derived hypoglycemic extract product of Example 1 was tested in vivo for hypoglycemic activity using a high fat diet-induced diabetic model.
(§1) Five week old male C57BL/6 mice (Jackson Laboratories, Bar Harbor, Me.) were placed on either low fat or high fat rodent diets (D12450B, 10% kcal, low fat or D12492, 60% kcal, high fat, Research Diets, New Brunswick, N.J.).
The mice were housed individually under controlled temperature (70° F.) and 12 hr light-dark cycles. Food (standard mouse chow, Purina) and water were available on an ad libitum basis for 7 days. The mice were then randomly divided into control Groups 1 and 6 (n=8-10), treatment Groups 2 and 3 (n=6), and two positive control Groups 4 and 5 (n=6) for the study. The control mice continued to receive either a high fat diet or a low fat diet, and the treatment groups were fed the high fat diet for a 14 week period. Two groups of mice were gavaged with PMI006 at a dose of 500 mg/kg daily. As a positive control, Metformin was administered at a dose of 300 mg/kg in two groups of positive control mice.
An oral glucose tolerance test was performed after seven days of treatment. On the test day, animals were fasted for seven hours and glucose (2.0 g/kg) was then orally administered to them. […]
Mice were deprived of food during testing and the blood glucose levels of whole blood (obtained from a tail nick procedure) were determined at certain times. The Aframomum melegueta-derived hypoglycemic extract product of Example 1 was orally administered at a dosage of 500 mg/kg to the two treatment Groups 2 and 3 either 1.5 or 3.0 hours before the glucose challenge. Metformin was orally administered at a dosage of 300 mg/kg to the animals in the positive control Groups 4 and 5 either 1.5 or 3.0 hours before the glucose challenge.

[2] = system: male C57BL/6 mice on high fat diet; test: Fasting blood glucose levels after a single gavage in mice on a high fat diet; assay type: in vivo; settings: 300 mg, Group 5, gavage
Procedure: The Aframomum melegueta-derived hypoglycemic extract product of Example 1 was tested in vivo for hypoglycemic activity.
as §1
The mice were housed four to a cage under controlled temperature ([…]) and 12 hr light-dark cycles. Food (standard mouse chow, Purina) and water were available on an ad libitum basis for 7 days. The mice were then randomly divided into six groups (n=6) for the study. Five groups of mice were fed the high fat diet for 12 weeks (Groups 1-5), and the sixth group (Group 6) was fed the low fat diet for 12 weeks. Weekly food intake per cage and individual body weights were determined throughout the study.
After 12 weeks, all mice (Groups 1-6) were fasted for 4 hrs. After fasting, Group 1 mice provided a control and were gavaged with saline containing 5% DMSO; mice of Groups 2-4 were gavaged with different concentrations of the hypoglycemic extract product of Example 1 in 5% DMSO; and, Group 5 mice were gavaged with 300 mg/kg of Metformin in 5% DMSO as a positive control. Group 6 mice, which were fed a low fat diet, were gavaged with saline containing 5% DMSO and thus were also used as a control. Blood glucose levels were measured with a One Touch® Ultra® handheld glucometer (Lifescan, Milpitas, Calif.) using One Touch® Ultra® test strips. Mice were deprived of food during testing and the blood glucose levels of whole blood (obtained from a tail nick procedure) were determined at certain times (0, 3, and 5 hours after fasting commenced).
[…] with compositions comprising […]. The blood glucose levels were tested immediately after treatment (0 hours) and then 3 and 5 hours after treatment.

Structure (SMILES): CN(C)C(=N)N=C(N)N [Metformin]
- Plasma glucose ([1]; 300 mg/kg oral 1.5 hr before glucose challenge, Group 4, 0 min): 160 ± 4.9 mg/dL
- Plasma glucose ([1]; 300 mg/kg oral 1.5 hr before glucose challenge, Group 4, 30 min): 235 ± 12.2 mg/dL
- Plasma glucose ([1]; 300 mg/kg oral 1.5 hr before glucose challenge, Group 4, 60 min): 190 ± 11.1 mg/dL
- Plasma glucose ([1]; 300 mg/kg oral 1.5 hr before glucose challenge, Group 4, 90 min): 164 ± 6.0 mg/dL
- Plasma glucose ([1]; 300 mg/kg oral 3 hr before glucose challenge, Group 5, 0 min): 173 ± 13.2 mg/dL
- Plasma glucose ([1]; 300 mg/kg oral 3 hr before glucose challenge, Group 5, 30 min): 207 ± 26.7 mg/dL
- Plasma glucose ([1]; 300 mg/kg oral 3 hr before glucose challenge, Group 5, 60 min): 171 ± 14.8 mg/dL
- Plasma glucose ([1]; 300 mg/kg oral 3 hr before glucose challenge, Group 5, 90 min): 158 ± 6.7 mg/dL
- Avg. glucose ([2]; Time - 0 hours): 218.5 mg/dL
- glucose (mg/dl), individual animals ([2]; Time - 0 hours): 252 mg/dL and 188 mg/dL and 194 mg/dL and 184 mg/dL and 274 mg/dL and 219 mg/dL
- Avg. glucose ([2]; Time - 3 hours): 149.7 mg/dL
- glucose (mg/dl), individual animals ([2]; Time - 3 hours): 66 mg/dL and 148 mg/dL and 161 mg/dL and 147 mg/dL and 157 mg/dL and 219 mg/dL
- Average value ([2]; Time - 5 hours): 128.2 mg/dL
- glucose (mg/dl), individual animals ([2]; Time - 5 hours): 145 mg/dL and 96 mg/dL and 119 mg/dL and 124 mg/dL and 162 mg/dL and 123 mg/dL
